# Measurements taken from patent US7060822B1, “2-pyrazolin-5-ones” (Abbott GmbH & Co. KG, priority 1999, dated 2006).
row,SMILES,melting point
1,"CCOC(=O)c1c(C)[nH]c(C=C2C(=O)NN=C2C2CC2)c1C [Example 75, 3-Cyclopropyl-4-[(3,5-dimethyl-4-ethoxycarbonylpyrrol-2-yl)methylene]-2-pyrazolin-5-one]",240 to 242 °C
2,"Cc1c[nH]c(C=C2C(=O)NN=C2OC(C)C)c1 [Example 41, 3-Isopropoxy-4-[(4-methylpyrrol-2-yl)methylene]-2-pyrazolin-5-one]",215 to 217 °C
3,"CCOC(=O)c1ccc(C=C2C(=O)NN=C2OC(C)C)[nH]1 [Example 90, 4-[(5-Ethoxycarbonylpyrrol-2-yl)methylene]-3-isopropoxy-2-pyrazolin-5-one]",205 to 207 °C
4,"Cc1cc(C)c(C=C2C(=O)NN=C2OC(C)C)[nH]1 [Example 30, 4-[(3,5-Dimethylpyrrol-2-yl)methylene]-3-isopropoxy-2-pyrazolin-5-one]",176 to 177 °C
5,"CCc1c(C)[nH]c(C=C2C(=O)NN=C2CCc2ccccc2)c1C [Example 37, 4-[(3,5-Dimethyl-4-ethylpyrrol-2-yl)methylene]-3-phenylethyl-2-pyrazolin-5-one]",168 to 170 °C
6,"Cc1cc(C)c(C=C2C(=O)NN=C2C2CC2)[nH]1 [Example 61, 3-Cyclopropyl-4-[(3,5-dimethylpyrrol-2-yl)methylene]-2-pyrazolin-5-one]",193 to 195 °C
7,"CC(C)OC1=NNC(=O)C1=Cc1cccn1C [Example 43, 3-Isopropoxy-4-[(1-methylpyrrol-2-yl)methylene]-2-pyrazolin-5-one]",199 to 201 °C
8,"Cc1c(CCC(=O)O)c[nH]c1C=C1C(=O)NN=C1Cc1ccccc1 [Example 7, 3-Benzyl-4-{[4-(2-carboxyethyl)-3-methylpyrrol-2-yl]methylene}-2-pyrazolin-5-one]",270 to 272 °C
9,"Cc1[nH]c(C=C2C(=O)NN=C2C2CC2)c(C)c1C(=O)O [Example 95, 4-[(4-Carboxy-3,5-dimethylpyrrol-2-yl)methylene]-3-cyclopropyl-2-pyrazolin-5-one]",312 °C (dec.)
10,O=C1NN=C(c2cccnc2)C1=Cc1c[nH]c2ncccc12,212 to 215 °C
11,"O=C1NN=C(Cc2ccccc2)C1=Cc1ccc[nH]1 [Example 2, 3-Benzyl-4-[(pyrrol-2-yl)methylene]-2-pyrazolin-5-one]",182 to 184 °C
12,"CCOC(=O)c1c(C)[nH]c(C=C2C(=O)NN=C2c2cccnc2)c1C [Example 96, 4-[(3,5-dimethyl-4-ethoxycarbonylpyrrol-2-yl)methylene]-3-(3-pyridyl)-2-pyrazolin-5-one]",247 to 249 °C
13,"CC(C)OC1=NNC(=O)C1=Cc1cccn1CCCCO [Example 38, 4-{[1-(4-Hydroxybutyl)pyrrol-2-yl]methylene}-3-isopropoxy-2-pyrazolin-5-one]",138 to 140 °C
14,"CCOC1=NNC(=O)C1=Cc1cc(Cl)c[nH]1 [Example 111, 4-[(4-Chloropyrrol-2-yl)methylene]-3-ethoxy-2-pyrazolin-5-one]",237 to 239 °C
15,"Cc1[nH]c(C=C2C(=O)NN=C2C2CC2)c(C)c1CNC(=O)C(F)(F)F [Example 131, 3-Cyclopropyl-4-[(3,5-dimethyl-4-trifluoroacetamidomethylpyrrol-2-yl)methylene]-2-pyrazolin-5-one]",278 to 280 °C
16,"O=C1NN=C(Nc2ccccc2)C1=Cc1ccc[nH]1 [Example 13, 3-Phenylamino-4-[(pyrrol-2-yl)methylene]-2-pyrazolin-5-one]",285 to 287 °C
17,"CCc1ccc(C=C2C(=O)NN=C2OC(C)C)[nH]1 [Example 51, 4-[(5-Ethylpyrrol-2-yl)methylene]-3-isopropoxy-2-pyrazolin-5-one]",119 to 121 °C
18,"COC(=O)CCC1=NNC(=O)C1=Cc1ccc[nH]1 [Example 103, 3-(2-Methoxycarbonylethyl)-4-[(pyrrol-2-yl)methylene]-2-pyrazolin-5-one]",134 to 136 °C
19,"O=C1NN=C(COc2ccccc2)C1=Cc1ccc[nH]1 [Example 4, 3-Phenyloxymethyl-4-[(pyrrol-2-yl)methylene]-2-pyrazolin-5-one]",163 to 165 °C
20,"CCOC1=NNC(=O)C1=Cc1ccc(Cl)[nH]1 [Example 113, 4-[(5-Chloropyrrol-2-yl)methylene]-3-ethoxy-2-pyrazolin-5-one]",170 to 172 °C
21,"COc1ccc(NC(=O)CC2=NNC(=O)C2=Cc2ccc[nH]2)cc1 [Example 54, 3-(4-Methoxyphenylaminocarbonylmethyl)-4-[(pyrrol-2-yl)methylene]-2-pyrazolin-5-one]",240 to 242 °C

# More lines, now with the values ahead:
row,melting point,SMILES
1,274 to 275 °C,"CCc1c(C)[nH]c(C=C2C(=O)NN=C2c2ccccc2)c1C [Example 146, 4-[(3,5-Dimethyl-4-ethylpyrrol-2-yl)methylene]-3-phenyl-2-pyrazolin-5-one]"
2,300 to 305 °C,"O=C1NN=C(C2CC2)C1=Cc1c[nH]c2ccccc12 [Example 256, 3-Cyclopropyl-4-[(indol-3-yl)methylene]-2-pyrazolin-5-one]"
3,203 to 205 °C,"Cc1[nH]c(C=C2C(=O)NN=C2c2cnccn2)c(C)c1CCNCc1ccncc1 [Example 204, 4-{{3,5-Dimethyl-4-[2-(4-pyridylmethylamino)ethyl]pyrrol-2-yl}methylene}-3-pyrazinyl-2-pyrazolin-5-one]"
4,192 to 193 °C,"Cn1cc(C=C2C(=O)NN=C2CCc2ccc(N)cc2)c2ccccc21 [Example 298, 3-(4-Aminophenylethyl)-4-[(1-methylindol-3-yl)methylene]-2-pyrazolin-5-one]"
5,155 to 157 °C,"CCOC(=O)c1c[nH]c(C=C2C(=O)NN=C2c2cnccn2)c1 [Example 136, 4-[(4-Ethoxycarbonylpyrrol-2-yl)methylene]-3-pyrazinyl-2-pyrazolin-5-one]"
6,244 to 246 °C,"Cc1[nH]c(C=C2C(=O)NN=C2C2CC2)c(C)c1CCO [Example 184, 3-Cyclopropyl-4-{[3,5-Dimethyl-4-(2-hydroxyethyl)pyrrol-2-yl]methylene}-2-pyrazolin-5-one]"
7,235 to 237 °C,"CCOC(=O)CC1=NNC(=O)C1=Cc1c[nH]c2ccccc12 [Example 254, 3-Ethoxycarbonylmethyl-4-[(indol-3-yl)methylene]-2-pyrazolin-5-one]"
8,294 to 296 °C,"CC1CC1C1=NNC(=O)C1=Cc1c[nH]c2ccccc12 (stereo not drawn) [Example 265, 4-[(Indol-3-yl)methylene]-3-(2-methylcyclopropyl)-2-pyrazolin-5-one]"
9,244 to 245 °C,"Cc1ccc(CCC2=NNC(=O)C2=Cc2c[nH]c3ccccc23)cc1 [Example 236, 4-[(Indol-3-yl)methylene]-3-(4-methylphenylethyl)-2-pyrazolin-5-one]"
10,241 to 242 °C,"CC(C)C1=NN(C)C(=O)C1=Cc1c[nH]c2ccccc12 [Example 368, 4[(Indol-3-yl)methylene]-3-isopropyl-1-methyl-2-pyrazolin-5-one]"
11,177 to 203 °C,"CCOC1=NNC(=O)C1=Cc1cc2c([nH]1)CCC=C2Cl [Example 329, 4-[(4-Chloro-6,7-dihydroindol-2-yl)methylene]-3-ethoxy-2-pyrazolin-5-one]"
12,263 to 265 °C,"NC(=O)c1ccc(CCC2=NNC(=O)C2=Cc2cc3ccccc3[nH]2)cc1 [Example 310, 3-(4-Carbamoylphenylethyl)-4-[(indol-2-yl)methylene]-2-pyrazolin-5-one]"
